Like-named read-outs stand apart in the source and are kept apart here.
How the values were obtained:
[1] = system: M. tuberculosis H37Rv-GFP; experiment: microbe, parasite or virus in culture; format: cell-based, Mycobacterium tuberculosis; settings: Mycobacterium tuberculosis, H37RV, Macrophage; for inhibition at 0.2 µM: read-out: QIM Confirm % Inhibition 0.2 uM; for inhibition at 2 µM: read-out: QIM Confirm % Inhibition 2 uM
[2] = system: Raw264.7 cells; settings: mouse, 5 days; for Primary QIM CellNb: 20 μM
[3] = system: Raw264.7 cells; experiment: Cell number (CellNb) from image analysis of the phenotypic cell-based assay
[4] = system: M. tuberculosis H37Rv-GFP; experiment: microbe, parasite or virus in culture; format: cell-based; settings: Mycobacterium tuberculosis; for inhibition at 0.2 µM: read-out: QUM Confirm % Inhibition 0.2 uM; for inhibition at 2 µM: read-out: QUM Confirm % Inhibition 2 uM; for inhibition at 20 µM: read-out: QUM Confirm % Inhibition 20 uM
[5] = confirmation, 20 uM, read-out: QIM Confirm % Inhibition 20 uM
[6] = primary screen, 20 μM, read-out: Primary QIM % Inhibition
[7] = confirmation, 20 uM, intracellular, read-out: QIM Confirm % Inhibition 20 uM
[8] = primary screen, 20 μM, intracellular, read-out: Primary QIM % Inhibition
[9] = confirmation, 0.2 uM, intracellular
[10] = confirmation, 2 uM, intracellular
[11] = read-out: Primary QIM % Inhibition
[12] = read-out: QIM Confirm % Inhibition 20 uM

Compound | inhibition at 20 µM [1, 5] [%] | inhibition at 20 µM [1, 6] [%] | Primary QIM CellNb [2] | Primary QIM CellNb ([3]; primary screen, 20 μM) | QIM Confirm CellNb 2 uM ([3]; confirmation, 2 uM) | inhibition at 0.2 µM [1, 9] [%] | inhibition at 2 µM [1, 10] [%] | inhibition at 0.2 µM [4] [%] | inhibition at 2 µM [4] [%] | inhibition at 20 µM [4] [%] | QIM Confirm CellNb 0.2 uM ([3]; confirmation, 0.2 uM) | QIM Confirm CellNb 20 uM ([3]; confirmation, 20 uM) | other results
CN1CCN(NC(=O)c2ccc(COc3ccc(Cl)cc3Cl)o2)CC1 [IPK 000 123 92] | 15.4 | 45.3 | 32.3 | 135.8 | – | – | – | – | – | – | – | – | –
O=C(O)COc1ccccc1/C=N/NC(=O)c1ccncc1 [IPK 000 105 19] | 106 | 98.7 | 104.1 | 374.3 | 566.4 | – | – | – | – | – | – | – | –
CC(/C=N/NC(=O)c1cccc(F)c1)c1ccccc1 (stereo not shown) [IPK 000 104 13] | 89.6 | 68.8 | 25.2 | 115.8 | – | – | – | – | – | – | – | – | –
CC(/C=N/NC(=O)c1ccncc1)c1ccccc1 (stereo not shown) [IPK 000 105 20] | 96.4 | 97.1 | 103.8 | 316.5 | – | – | – | – | – | – | – | – | –
O=C(N/N=C/c1cccc(Br)c1)c1ccncc1 [IPK 000 043 09] | 102 | 95.8 | 100.5 | 258.5 | – | – | – | – | – | – | – | – | –
CSc1nsc(SCc2ccc(C(=O)Nc3ccc(C)cc3C)cc2)n1 [IPK 000 125 08] | – | – | – | – | – | – | – | – | – | – | – | – | inhibition at 20 µM [1, 7]: 65.1%; inhibition at 20 µM [1, 8]: 72.8%; QIM Confirm CellNb 0.2 uM [2]: 388.9
Cc1cc(C)cc(NC(=O)c2cccs2)c1 [IPK 000 192 45] | – | – | – | – | – | – | – | – | – | – | – | – | inhibition at 20 µM [1, 7]: 65.4%; inhibition at 20 µM [1, 8]: 88.8%; QIM Confirm CellNb 0.2 uM [2]: 334.0
CN(C)c1ccc(/C=C2/c3ccccc3-c3ccc(C(=O)CCCCN4CCCCC4)cc32)cc1 [IPK 000 198 53] | – | – | 10.2 | – | – | – | – | – | – | – | – | – | inhibition at 20 µM [1, 7]: 41.9%; inhibition at 20 µM [1, 8]: 58.5%
O=C(Nc1ccccc1)Nc1ccc(Br)c(Cl)c1 [IPK 000 170 27] | – | – | – | – | – | – | – | – | – | – | – | – | inhibition at 20 µM [1, 7]: 18.9%; inhibition at 20 µM [1, 8]: -72.4%; QIM Confirm CellNb 20 uM ([2]; 20 uM): 46.9
O=[N+]([O-])c1ccc(/C=N/c2ccccc2O)cc1 [IPK 000 040 14] | 18.1 | -38.6 | – | 95.5 | 262.3 | 20.4 | 15.6 | 38.7 | 46.8 | 68.4 | 321.4 | 330.0 | –
O=C(N/N=C/c1cc(Br)c(Br)o1)c1ccncc1 [IPK 000 009 41] | 99.6 | 92.9 | – | 345.8 | 488.3 | 19.6 | 92.8 | 28.3 | 59.6 | 99.4 | 257.8 | 446.5 | –
O=C(NN=C1CCCC1)c1ccncc1 [IPK 000 013 70] | 103 | 88.3 | – | 309.3 | 510.9 | 50.5 | 98.1 | 46.3 | 79.4 | 67.6 | 412.6 | 518.5 | –
O=C(N/N=C\c1ccc(Cl)s1)c1ccncc1 [IPK 000 009 42] | 97.9 | 93.1 | – | 376.5 | 473.5 | 21.3 | 92.3 | 28.8 | 50.3 | 100 | 326.3 | 255.0 | –
CCOC(=O)c1c(CSc2ccccc2)n(Cc2ccccc2)c2ccc(O)c(CN(C)C)c12 [IPK 000 016 05] | – | – | – | – | – | – | – | 36.6 | 42.5 | 70 | – | – | inhibition at 20 µM [1, 11]: 67.9%; inhibition at 0.2 µM [1]: -2.2%; inhibition at 2 µM [1]: 0.8%; inhibition at 20 µM [1, 12]: 43.4%; Primary QIM CellNb [3]: 192.0; QIM Confirm CellNb 0.2 uM [3]: 206.8; QIM Confirm CellNb 2 uM [3]: 148.9; QIM Confirm CellNb 20 uM [3]: 282.0
O=C(N/N=C/c1ccccc1O)c1ccncc1 [IPK 000 041 45] | 87.2 | 88.6 | – | 324.5 | 527.9 | 56.7 | 103 | 38.4 | 47.4 | 100 | 437.4 | 243.8 | –
O=C(Nc1ccc(Oc2ccccc2)cc1)C1CCCO1 (stereo not shown) [IPK 000 033 16] | 92.3 | 81.9 | – | 283.0 | 573.9 | 5 | 69.6 | 34.1 | 42 | 61.3 | 296.1 | 303.9 | –
COc1ccc(OCCNC(=O)c2cc([N+](=O)[O-])cc([N+](=O)[O-])c2)cc1 [IPK 000 028 35] | – | – | – | – | – | – | – | 94 | 98.1 | 48.3 | – | – | inhibition at 20 µM [1, 11]: 94.5%; inhibition at 0.2 µM [1]: 64.5%; inhibition at 2 µM [1]: 102%; inhibition at 20 µM [1, 12]: 17.8%; Primary QIM CellNb [3]: 315.3; QIM Confirm CellNb 0.2 uM [3]: 489.8; QIM Confirm CellNb 2 uM [3]: 478.6; QIM Confirm CellNb 20 uM [3]: 308.9
